Data taken from US20220235088A1 (Memorial Sloan-Kettering Cancer Center, priority 2019, published 2022).
In brackets after ≈: the same amount, converted by molar mass. Several values for one entry are separate records, joined by “and”; a condition that tells them apart may be missing. Identical values can stand only once. Entries after “also recorded” stand apart in the source; their conditions may differ.

Columns and labels:
MRSA (ATCC BAA-1762) = details: MRSA (ATCC BAA1762); Matarlo et al. Biochemistry 2015; cited from earlier work
E. coli MenE (K437A) = molecular target: T1, E. coli MenE (K437A) (Escherichia coli, UniProt P37353, K437A); assay: Isothermal titration calorimetry, MenE K437A lynchpin mutant; assay type: binding; details: ITC
T1 construct: His6 (N); made in house; host or cells: E. coli BL21(DE3) pLysS
T1 sequence (P37353 1-451 K437A): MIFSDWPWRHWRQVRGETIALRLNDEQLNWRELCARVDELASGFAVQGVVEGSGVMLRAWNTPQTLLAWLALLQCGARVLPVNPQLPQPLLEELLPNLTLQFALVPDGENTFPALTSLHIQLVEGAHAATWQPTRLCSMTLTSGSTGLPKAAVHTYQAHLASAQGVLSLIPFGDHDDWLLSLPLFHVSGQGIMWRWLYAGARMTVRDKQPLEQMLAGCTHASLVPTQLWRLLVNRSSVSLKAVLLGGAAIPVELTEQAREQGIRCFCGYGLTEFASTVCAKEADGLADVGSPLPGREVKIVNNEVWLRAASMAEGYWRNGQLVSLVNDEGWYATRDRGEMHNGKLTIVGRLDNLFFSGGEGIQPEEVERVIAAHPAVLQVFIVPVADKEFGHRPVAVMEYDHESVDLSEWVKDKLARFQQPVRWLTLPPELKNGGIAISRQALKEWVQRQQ
Method: Based on the nucleotide sequence of MenE (from E. coli strain K-12), the forward primer with the sequence of 5′-[…]-3′ and T7 reverse primer were designed, synthesized, and used to introduce the K437A mutation in E. coli MenE. High-fidelity Phusion polymerase (New England BioLabs) was used for standard polymerase chain reaction amplification and mutagenesis.
(§1) ITC was performed using VP-ITC instrument at 22° C. Inhibitor (1 mM) and E. coli MenE(wt) (30 μM) were prepared in 20 mM NaHPO4, pH 7.4 buffer containing 150 mM NaCl and 1 mM MgCl2. From the injection syringe, the inhibitor was titrated into the sample cell containing 1.8 mL solution of MenE. The data were fit to a single-binding site model with the Origin software package.
To probe for these interactions experimentally. the binding affinity of m-phenyl ether analogue 5 to wild-type E. coli MenE and the K437A mutant were compared.

E. coli MenE(wt) = molecular target: T2, E. coli MenE(wt) (Escherichia coli, UniProt P37353); assay: Isothermal titration calorimetry, wild-type MenE; assay type: binding
T2 construct: His6 (N); made in house; host or cells: E. coli BL21(DE3) pLysS
Method: as §1
Next. the binding affinity of the 5 with E. coli MenE was deteremined using isothermal titration calorimetry (ITC).

E. coli MenE = molecular target: T3, E. coli MenE (Escherichia coli, UniProt P37353); assay: MenE-MenB coupled enzyme inhibition assay (DHNA-CoA production at 392 nm); assay type: biochemical; details: for IC50: ecMenE 50 nM, OSB 60 μM, ATP 240 μM, CoA 240 μM, pH 7.4; for inhibition of MenE (in words): MenE coupled assay
T3 construct: His6 (N); made in house; host or cells: E. coli BL21(DE3) pLysS
Method: Enzyme inhibition studies were performed in 20 mM NaHPO4 buffer (pH 7.4) containing 150 mM NaCl and 1 mM MgCl2 using a […] coupled assay in which MenE is rate-limiting. […] Reactions were initiated by addition of ecMenE (50 nM), and the production of DHNA-CoA was monitored at 392 nm (ε392=4000 M^−1 cm^−1).
With these linker analogues in hand, their inhibition of E. coli MenE using the previously reported MenE-Meng coupled assay was evaluated (Lu, X. et al. Bioorg. Med. Chem. Lett. 2008, 18, 5963). Consistent with predictions from the docking experiments, all but one of the analogues inhibited MenE, albeit with modest IC50 values compared to OSB-AMS (1) (Table 2).

T3 sequence (P37353 whole entry): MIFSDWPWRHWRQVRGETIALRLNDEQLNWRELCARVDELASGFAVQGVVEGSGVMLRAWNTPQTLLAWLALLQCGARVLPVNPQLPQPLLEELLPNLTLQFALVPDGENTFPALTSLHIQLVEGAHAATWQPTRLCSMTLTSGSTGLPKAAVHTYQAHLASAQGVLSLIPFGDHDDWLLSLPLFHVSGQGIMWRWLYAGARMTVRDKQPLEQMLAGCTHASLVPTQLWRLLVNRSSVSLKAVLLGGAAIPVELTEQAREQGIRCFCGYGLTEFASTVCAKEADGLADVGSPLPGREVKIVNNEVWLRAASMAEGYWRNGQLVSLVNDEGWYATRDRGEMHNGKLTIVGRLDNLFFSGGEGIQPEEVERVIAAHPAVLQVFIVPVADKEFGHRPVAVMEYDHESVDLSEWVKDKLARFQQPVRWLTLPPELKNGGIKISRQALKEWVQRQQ
T2 sequence (P37353 whole entry): as above

| Structure (SMILES) | MIC (MRSA (ATCC BAA-1762)) [µg/mL] | Kd (E. coli MenE (K437A)) [nM] | Kd (E. coli MenE(wt); ITC, 22° C, wild-type E. coli MenE) | IC50 (E. coli MenE) [nM] | binding in the ITC assay (in words) (E. coli MenE(wt); E. coli MenE) | inhibition of MenE (in words) (E. coli MenE) |
| --- | --- | --- | --- | --- | --- | --- |
| Nc1ncnc2c1ncn2[C@@H]1O[C@H](COS(=O)(=O)NC(=O)CCC(=O)c2ccccc2C(=O)O)[C@@H](O)[C@H]1O [OSB-AMS (1)] | 31.25 (≈ 56.8 µM) |  |  |  |  |  |
| Nc1ncnc2c1ncn2[C@@H]1O[C@H](COc2cccc(CCC(=O)c3ccccc3C(=O)O)c2)[C@@H](O)[C@H]1O [compound 5] |  | 244 | 244 nM and 249 nM | 8100 ± 900 |  |  |
| Nc1ncnc2c1ncn2[C@@H]1O[C@H](COc2ccc(CCC(=O)c3ccccc3C(=O)O)cc2)[C@@H](O)[C@H]1O [compound 6, 5′-O-([2-(Carboxyl)phenyl]3-(3-hydroxyphenyl)propannyl)adenosine] |  |  |  | > 200000 | no binding | no inhibition; also recorded: did not inhibit MenE |
| Nc1ncnc2c1ncn2[C@@H]1O[C@H](COc2cc(CCC(=O)c3ccccc3C(=O)O)cc(C(F)(F)F)c2)[C@@H](O)[C@H]1O [compound 8] |  |  |  | 26500 ± 2300 |  | slightly weaker inhibition |
